Results from ChEMBL document CHEMBL4417631, “Oral peptide inhibitors of interleukin-23 receptor and their use to treat inflammatory bowel diseases” (2017).
*1 amine or outer side, *2 acyl side, *3 side chain or, on linkers, in order; H or OH if unused. Where a SMILES comes first, the peptide text is derived from it. Bridges are numbered along the chain shown (N, C = ends). [ ]: non-standard residue; d: D form. Abu(4-yl) = O=C([C@H](CC[*:3])N[*:1])[*:2]; 2Nal = N[C@@H](Cc1ccc2ccccc2c1)C(=O)O; AEF = NCCOc1ccc(C[C@H](N)C(=O)O)cc1; αMeK = C[C@](N)(CCCCN)C(=O)O

Assays:
Interleukin-23 receptor [1] = molecular target: T1, Interleukin-23 receptor (Homo sapiens, UniProt Q5VWK5); assay: Inhibition of interleukin-23 binding to human interleukin-23 receptor incubated for 2 hrs by competitive binding ELISA
T1 sequence (Q5VWK5 whole entry): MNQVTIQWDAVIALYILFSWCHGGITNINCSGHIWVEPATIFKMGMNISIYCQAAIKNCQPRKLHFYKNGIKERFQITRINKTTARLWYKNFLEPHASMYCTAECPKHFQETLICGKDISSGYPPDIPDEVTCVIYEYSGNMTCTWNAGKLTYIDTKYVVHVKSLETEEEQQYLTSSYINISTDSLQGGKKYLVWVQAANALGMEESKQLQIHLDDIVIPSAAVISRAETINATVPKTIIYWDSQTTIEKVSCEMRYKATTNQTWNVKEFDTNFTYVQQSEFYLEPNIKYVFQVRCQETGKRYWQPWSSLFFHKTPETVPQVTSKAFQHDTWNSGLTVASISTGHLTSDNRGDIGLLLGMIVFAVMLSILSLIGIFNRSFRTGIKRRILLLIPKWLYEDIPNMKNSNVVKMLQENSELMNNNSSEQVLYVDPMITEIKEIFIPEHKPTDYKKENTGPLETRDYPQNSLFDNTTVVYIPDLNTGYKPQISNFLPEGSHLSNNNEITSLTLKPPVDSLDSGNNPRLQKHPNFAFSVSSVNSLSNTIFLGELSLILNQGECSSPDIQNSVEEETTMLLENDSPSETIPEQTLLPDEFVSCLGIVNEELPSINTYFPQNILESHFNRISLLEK

Interleukin-23 receptor [2] = molecular target: T1, Interleukin-23 receptor; assay: Inhibition of interleukin-23 receptor in human DB cells assessed as reduction in IL-23-stimulated STAT3 phosphorylation incubated for 30 mins by HTRF assay; assay type: cell-based
[3] = Inhibition of interleukin-23 binding to rat interleukin-23 receptor incubated for 2 hrs by competitive binding ELISA
[4] = Half life in simulated intestinal fluid at 20 uM by LC-MS/MS analysis; assay type: ADME

| SMILES | IC50 (Interleukin-23 receptor [1]) | IC50 (Interleukin-23 receptor [2]) | IC50 [3] | half-life at 20 µM [4] |
| --- | --- | --- | --- | --- |
| CC(=O)N[C@H](C(=O)N[C@@H](CCCNC(=N)N)C(=O)N[C@H](C(=O)N[C@@H](Cc1c[nH]c2ccccc12)C(=O)N[C@@H](CCC(N)=O)C(=O)N[C@H](C(=O)N[C@@H](Cc1ccc(O)cc1)C(=O)N[C@@H](Cc1c[nH]c2ccccc12)C(=O)N[C@@H](CCCNC(=N)N)C(=O)N[C@@H](CCCCN)C(=O)N[C@@H](Cc1ccccc1)C(=O)NCC(=O)NCCOCC(=O)N[C@H](CCCCN)C(N)=O)C(C)(C)S)[C@@H](C)O)C(C)(C)S | 100 to 1000 nM | 25 to 100 nM | 100 to 1000 nM |  |
| CC(=O)NCCCC[C@H](NC(=O)[C@](C)(CCCCN)NC(=O)[C@H](Cc1ccc2ccccc2c1)NC(=O)[C@H](Cc1ccc(OCCN)cc1)NC(=O)[C@@H](NC(=O)[C@H](CCC(N)=O)NC(=O)[C@H](Cc1c[nH]c2ccccc12)NC(=O)[C@@H](NC(=O)[C@H](CCC(N)=O)NC(=O)[C@@H](NC(C)=O)C(C)(C)S)[C@@H](C)O)C(C)(C)S)C(=O)N[C@@H](CC(N)=O)C(=O)NCC(N)=O | < 10 nM | < 10 nM | 25 to 100 nM |  |
| CC(=O)NCCCC[C@H](NC(=O)[C@](C)(CCCN)NC(=O)[C@H](Cc1ccc2ccccc2c1)NC(=O)[C@H](Cc1ccc2ccccc2c1)NC(=O)[C@@H]1CSCC[C@H](NC(C)=O)C(=O)N[C@@H](CCC(N)=O)C(=O)N[C@@H]([C@@H](C)O)C(=O)N[C@@H](Cc2c[nH]c3ccccc23)C(=O)N[C@@H](CCC(N)=O)C(=O)N1)C(=O)N[C@@H](CC(N)=O)C(=O)NCC(N)=O | 25 to 100 nM | < 10 nM | 100 to 1000 nM | 2 to 3 h |
| CC(=O)N[C@H](C(=O)N[C@@H](C)C(=O)N[C@@H](CC(=O)O)C(=O)N[C@@H](Cc1c[nH]c2ccccc12)C(=O)N[C@H](C(=O)N[C@@H](CS)C(=O)N[C@@H](Cc1ccc(O)cc1)C(=O)N[C@@H](Cc1c[nH]c2ccccc12)C(=O)N[C@@H](Cc1cnc[nH]1)C(=O)N[C@H](C(=O)N[C@@H](Cc1ccccc1)C(=O)NCC(=O)NCCOCC(=O)N[C@H](CCCCN)C(N)=O)[C@@H](C)O)C(C)C)C(C)(C)S | 100 to 1000 nM | 100 to 1000 nM | 1000 to 10000 nM |  |
| CC(=O)N[C@@H](CS)C(=O)N[C@@H](CCC(N)=O)C(=O)N[C@H](C(=O)N[C@@H](Cc1c[nH]c2ccccc12)C(=O)N[C@@H](CCC(N)=O)C(=O)N[C@H](C(=O)N[C@@H](Cc1ccc(O)cc1)C(=O)N[C@@H](Cc1c[nH]c2ccccc12)C(=O)N[C@@](C)(CC(C)C)C(=O)N[C@@H](CCC(=O)O)C(=O)N[C@@H](CC(N)=O)C(=O)NCC(N)=O)C(C)(C)S)[C@@H](C)O | 100 to 1000 nM |  | 100 to 1000 nM | < 1 h |
| CC(=O)N[C@H](C(=O)N[C@@H](CCC(N)=O)C(=O)N[C@H](C(=O)N[C@@H](Cc1c[nH]c2ccccc12)C(=O)N[C@@H](CCC(N)=O)C(=O)N[C@H](C(=O)N[C@@H](Cc1ccc(O)cc1)C(=O)N[C@@H](Cc1ccc2ccccc2c1)C(=O)N[C@@](C)(CCCN)C(=O)N[C@@H](CCC(=O)O)C(=O)N[C@@H](CC(N)=O)C(=O)NCC(N)=O)C(C)(C)S)[C@@H](C)O)C(C)(C)S | 25 to 100 nM | 10 to 25 nM | 100 to 1000 nM | 3 to 6 h |
| COc1ccc(C[C@H](NC(=O)[C@@H](NC(=O)[C@H](CCC(N)=O)NC(=O)[C@H](Cc2c[nH]c3ccccc23)NC(=O)[C@@H](NC(=O)[C@H](CCC(N)=O)NC(=O)[C@@H](NC(=O)Cc2ccc(F)cc2)C(C)(C)S)[C@@H](C)O)C(C)(C)S)C(=O)N[C@@H](Cc2ccc3ccccc3c2)C(=O)N[C@@](C)(CCCCN)C(=O)N[C@@H](CCCCNC(C)=O)C(=O)N[C@@H](CC(N)=O)C(=O)NCC(N)=O)cc1 | 25 to 100 nM | < 10 nM | 100 to 1000 nM |  |
| COc1ccc(C[C@H](NC(=O)[C@@H](NC(=O)[C@H](CCC(N)=O)NC(=O)[C@H](Cc2c[nH]c3ccccc23)NC(=O)[C@@H](NC(=O)[C@H](CCC(N)=O)NC(=O)[C@@H](NC(=O)CC(C)C)C(C)(C)S)[C@@H](C)O)C(C)(C)S)C(=O)N[C@@H](Cc2ccc3ccccc3c2)C(=O)N[C@@](C)(CCCCN)C(=O)N[C@@H](CCCCNC(C)=O)C(=O)N[C@@H](CC(N)=O)C(=O)NCC(N)=O)cc1 | 25 to 100 nM | 10 to 25 nM | 25 to 100 nM |  |
| COc1ccc(C[C@H](NC(=O)[C@@H](NC(=O)[C@H](CCC(N)=O)NC(=O)[C@H](Cc2c[nH]c3ccccc23)NC(=O)[C@@H](NC(=O)[C@H](CCC(N)=O)NC(=O)[C@@H](NC(C)=O)C(C)(C)S)[C@@H](C)O)C(C)(C)S)C(=O)N[C@@H](Cc2c[nH]c3ccccc23)C(=O)N[C@@](C)(CCCCN)C(=O)N[C@@H](CCCCNC(C)=O)C(=O)N[C@@H](CC(N)=O)C(=O)NCC(N)=O)cc1 | 25 to 100 nM | 10 to 25 nM | 25 to 100 nM | > 6 h |
| CC(=O)N[C@H](C(=O)N[C@@H](CN)C(=O)N[C@H](C(=O)N[C@@H](Cc1c[nH]c2ccccc12)C(=O)N[C@@H](CCC(N)=O)C(=O)N[C@H](C(=O)N[C@@H](Cc1ccc(OCCN)cc1)C(=O)N[C@@H](Cc1ccc2ccccc2c1)C(=O)N[C@@](C)(CCCCN)C(=O)N[C@@H](CCC(=O)O)C(=O)N[C@@H](CC(N)=O)C(=O)NCC(N)=O)C(C)(C)S)[C@@H](C)O)C(C)(C)S | < 10 nM | < 10 nM | 25 to 100 nM |  |
| CC(=O)N[C@H](C(=O)N[C@@H](CCC(N)=O)C(=O)N[C@H](C(=O)N[C@@H](Cc1c[nH]c2ccccc12)C(=O)N[C@@H](CCC(N)=O)C(=O)N[C@H](C(=O)N[C@@H](Cc1ccc(O)cc1)C(=O)N[C@@H](Cc1c[nH]c2ccccc12)C(=O)N[C@@](C)(CCCN)C(=O)N[C@@H](CCC(=O)O)C(=O)N[C@@H](CC(N)=O)C(=O)NCC(N)=O)C(C)(C)S)[C@@H](C)O)C(C)(C)S | 100 to 1000 nM | 25 to 100 nM | 100 to 1000 nM | 3 to 6 h |
| CC(=O)N[C@H](C(=O)N[C@@H](CCCNC(=N)N)C(=O)N[C@H](C(=O)N[C@@H](Cc1c[nH]c2ccccc12)C(=O)N[C@@H](CCC(N)=O)C(=O)N[C@@H](CS)C(=O)N[C@@H](Cc1ccc(O)cc1)C(=O)N[C@@H](Cc1c[nH]c2ccccc12)C(=O)N[C@@H](CCCNC(=N)N)C(=O)N[C@@H](CCCCN)C(=O)N[C@@H](Cc1ccccc1)C(=O)NCC(=O)NCCOCC(=O)N[C@H](CCCCN)C(N)=O)[C@@H](C)O)C(C)(C)S | 100 to 1000 nM | 100 to 1000 nM | 100 to 1000 nM |  |
| CC(=O)NCCCC[C@](C)(NC(=O)[C@H](Cc1ccc2ccccc2c1)NC(=O)[C@H](Cc1ccc(OCCNC(C)=O)cc1)NC(=O)[C@@H]1CSCC[C@H](NC(C)=O)C(=O)N[C@@H](CCC(N)=O)C(=O)N[C@@H]([C@@H](C)O)C(=O)N[C@@H](Cc2c[nH]c3ccccc23)C(=O)N[C@@H](CCC(N)=O)C(=O)N1)C(=O)N[C@@H](CCC(=O)O)C(=O)N[C@@H](CC(N)=O)C(=O)N[C@@H](CC(N)=O)C(N)=O | < 10 nM | < 10 nM | < 10 nM |  |
| CC(=O)NCCCC[C@](C)(NC(=O)[C@H](Cc1ccc2ccccc2c1)NC(=O)[C@H](Cc1ccc(OCCNC(C)=O)cc1)NC(=O)[C@@H]1CSCC[C@H](NC(C)=O)C(=O)N[C@@H](CCC(N)=O)C(=O)N[C@@H]([C@@H](C)O)C(=O)N[C@@H](Cc2c[nH]c3ccccc23)C(=O)N[C@@H](CCC(N)=O)C(=O)N1)C(=O)N[C@@H](CCC(=O)O)C(=O)N[C@@H](CC(N)=O)C(=O)N[C@@H](CCC(N)=O)C(N)=O (Ac-[Abu(4-yl)]QTWQC[AEF](Ac)[2Nal][αMeK](Ac)ENQ-NH2; thioether 1-6) | < 10 nM | < 10 nM | < 10 nM |  |
| CC(=O)N[C@@H](CS)C(=O)N[C@@H](C)C(=O)N[C@@H](CC(=O)O)C(=O)N[C@@H](Cc1c[nH]c2ccccc12)C(=O)N[C@H](C(=O)N[C@H](C(=O)N[C@@H](Cc1ccc(O)cc1)C(=O)N[C@@H](Cc1c[nH]c2ccccc12)C(=O)N[C@@H](Cc1cnc[nH]1)C(=O)N[C@H](C(=O)N[C@@H](Cc1ccccc1)C(=O)NCC(=O)NCCOCC(=O)N[C@H](CCCCN)C(N)=O)[C@@H](C)O)C(C)(C)S)C(C)C | > 30000 nM | 100 to 1000 nM | 1000 to 10000 nM |  |
| COc1ccc(C[C@H](NC(=O)[C@@H](NC(=O)[C@H](CCC(N)=O)NC(=O)[C@H](Cc2c[nH]c3ccccc23)NC(=O)[C@@H](NC(=O)[C@H](CCC(N)=O)NC(=O)[C@@H](NC(=O)CCCC(=O)O)C(C)(C)S)[C@@H](C)O)C(C)(C)S)C(=O)N[C@@H](Cc2ccc3ccccc3c2)C(=O)N[C@@](C)(CCCCN)C(=O)N[C@@H](CCCCNC(C)=O)C(=O)N[C@@H](CC(N)=O)C(=O)NCC(N)=O)cc1 | 25 to 100 nM | 10 to 25 nM | 25 to 100 nM |  |
